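All cell lines were grown in 96-well plates and treated with compound for 48 hours. GI50 marks 50% less growth. At the TGI there is no net growth.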
Tests used:
Experiment in all cases: DTP human tumour cell line panel, 48 h
[1] = system: A549 NSCLC
[2] = system: DU-145 prostate
[3] = system: HL-60(TB) leukemia
[4] = system: HS 578T breast
[5] = system: HT29 colon
[6] = system: KM12 colon
[7] = system: NCI-H522 lung
[8] = system: OVCAR-3 ovarian
[9] = system: OVCAR-5 ovarian
[10] = system: RPMI-8226 leukemia

Row | Compound | GI50 [1] [nM] | TGI [1] [µM] | GI50 [2] [nM] | TGI [2] [µM] | GI50 [3] [nM] | TGI [3] [µM] | GI50 [4] [µM] | TGI [4] [µM] | GI50 [5] [nM] | TGI [5] [µM] | GI50 [6] [nM] | TGI [6] [µM] | GI50 [7] [nM] | TGI [7] [µM] | GI50 [8] [µM] | TGI [8] [µM] | GI50 [9] [nM] | TGI [9] [µM] | GI50 [10] [nM] | TGI [10] [µM]
1 | CC(=O)c1cccc(NC(=O)c2ccc(NC3=C(Cl)C(=O)N(Cc4ccccc4)C3=O)cc2)c1 | 25800 | > 100 | 13400 | 34.2 | 2830 | 17.2 | 22.6 | 88.7 | 27300 | > 100 | 20000 | 43 | 2450 | 19.4 | 9.57 | 22.7 | > 100000 | > 100 | 3310 | 15.1
2 | CC1(C)N=C(N)N=C(N)N1c1ccc(Cl)c(Cl)c1 | 152 | > 100 | 523 | > 100 | 6270 | > 100 | > 27.3 | > 100 | 100 | > 100 | 648 | > 100 | 6670 | > 100 | 5.27 | > 100 | 252 | > 100 |  | > 100
3 | COc1cc(C2C3=C(COC3=O)Nc3cc4c(cc32)OCO4)cc2c1OCO2 (stereo not drawn) | 117 | > 100 | 83.2 | 0.459 | 59 |  | 0.0414 | > 100 | 72.2 | 3.21 | 35.5 | 1.92 | 21.9 | 0.0665 | 0.0267 | 0.0695 | 1090 | > 100 | 68 | > 100
4 | CC/C=C\C[C@H](O)C/C=C1/C(=O)C=C[C@@H]1C/C=C\CCCC(=O)NC | 2550 | 6.81 | 2730 | 12.7 | 1700 | 7.24 | 5.24 | 55.2 | 1520 | 3.25 | 1360 | 2.79 | 1540 | 3.77 | 1.2 | 4.11 | 2000 | 4.27 | 957 | 6
5 | CN(C)CCOc1ccc(-c2cc(-c3ccc4c(c3)CC/C4=N\O)c(-c3ccncc3)o2)cc1 | 3570 | 7.06 | 3780 | 7.38 | 5460 | 10.8 | 4.59 | 12.4 | 451 | 4.39 | 3570 | 7.28 | 3730 | 8.02 | 4.38 | 8.16 | 3320 | 6.79 | 4280 | 10.7
6 | COc1ccc(Oc2cc(NCCC(F)(F)F)c3ncc(-c4ccc(C(=O)NC5CC5)c(C)c4)n3n2)c(F)c1F | 902 | > 59.2 | 423 | > 100 | 2220 | > 100 | 1 | 50.6 | 506 | > 100 | 1440 | > 100 | 381 | > 64.8 | 8.67 | > 91.9 | 24900 | > 100 | 656 | > 100
7 | Cc1cc(O)cc(C)c1/C=C/c1cncc(C(=O)OC(C)(C)C)c1 | 9230 | > 25 | 17000 | > 25 | 8650 | 22.7 | 7.64 | 24.7 | > 16800 | > 25 | 15200 | > 25 | 7950 | 24.8 | 17 | > 25 | > 25000 | > 25 | > 22400 | > 25
8 | Oc1c2c(c(O)c3ccccc13)C1(N=N2)c2ccccc2Oc2ccccc21 |  | 66.5 |  | 37 |  | 62.1 |  | 41.5 |  | 30.2 |  | 38.6 |  | 5.13 |  | 10.8 |  | 26.5 |  | 14.7
9 | CN(C)c1ccc(C(=C2C=CC(=[N+](C)C)C=C2)c2ccccc2Cl)cc1 | 248 | 4.24 | 374 | 1.31 | 277 | 3.84 | 0.207 | 2.78 | 167 | 1.03 | 283 | 0.929 | 268 | 0.925 | 0.261 | 0.699 | 408 | 1.48 | 184 | 0.893
